# Test results published in patent US20250376461A1, “INDAZOLE DERIVATIVES FOR TREATING TRPM3-MEDIATED DISORDERS” (Katholieke Universiteit Leuven, priority 2022, published 2025).
# Target: T1, mouse TRPM3α2 (mTRPM3) ion channel (Mus musculus, UniProt J9SQF3)
# T1 construct: expressed in transfected cells; host or cells: flip-in HEK293
# Assay: TRPM3 ion channel driven Ca2+ uptake, Fluo-4 AM assay, mTRPM3alpha2 overexpressing flip-in HEK293 cells stimulated with pregnenolone sulfate (50 μM)
# Assay type: cell-based
# Conditions: mTRPM3 overexpressing HEK293 cells stimulated with pregnenolone sulfate (50 μM), activity ranges A, B, C
# Outline: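 Flip-in HEK293 cells overexpressing mTRPM3α2, loaded with Fluo-4 AM, added at ±2000 cells/well to plates holding compound plus 50 μM pregnenolone sulfate in Ca2+-containing Krebs buffer. Fluorescence (ex 485/em 535 nm) read immediately. Percent inhibition normalised between vehicle and positive-control inhibitor; IC50 derived.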
# T1 sequence (J9SQF3 1-1709 isoform J9SQF3-12): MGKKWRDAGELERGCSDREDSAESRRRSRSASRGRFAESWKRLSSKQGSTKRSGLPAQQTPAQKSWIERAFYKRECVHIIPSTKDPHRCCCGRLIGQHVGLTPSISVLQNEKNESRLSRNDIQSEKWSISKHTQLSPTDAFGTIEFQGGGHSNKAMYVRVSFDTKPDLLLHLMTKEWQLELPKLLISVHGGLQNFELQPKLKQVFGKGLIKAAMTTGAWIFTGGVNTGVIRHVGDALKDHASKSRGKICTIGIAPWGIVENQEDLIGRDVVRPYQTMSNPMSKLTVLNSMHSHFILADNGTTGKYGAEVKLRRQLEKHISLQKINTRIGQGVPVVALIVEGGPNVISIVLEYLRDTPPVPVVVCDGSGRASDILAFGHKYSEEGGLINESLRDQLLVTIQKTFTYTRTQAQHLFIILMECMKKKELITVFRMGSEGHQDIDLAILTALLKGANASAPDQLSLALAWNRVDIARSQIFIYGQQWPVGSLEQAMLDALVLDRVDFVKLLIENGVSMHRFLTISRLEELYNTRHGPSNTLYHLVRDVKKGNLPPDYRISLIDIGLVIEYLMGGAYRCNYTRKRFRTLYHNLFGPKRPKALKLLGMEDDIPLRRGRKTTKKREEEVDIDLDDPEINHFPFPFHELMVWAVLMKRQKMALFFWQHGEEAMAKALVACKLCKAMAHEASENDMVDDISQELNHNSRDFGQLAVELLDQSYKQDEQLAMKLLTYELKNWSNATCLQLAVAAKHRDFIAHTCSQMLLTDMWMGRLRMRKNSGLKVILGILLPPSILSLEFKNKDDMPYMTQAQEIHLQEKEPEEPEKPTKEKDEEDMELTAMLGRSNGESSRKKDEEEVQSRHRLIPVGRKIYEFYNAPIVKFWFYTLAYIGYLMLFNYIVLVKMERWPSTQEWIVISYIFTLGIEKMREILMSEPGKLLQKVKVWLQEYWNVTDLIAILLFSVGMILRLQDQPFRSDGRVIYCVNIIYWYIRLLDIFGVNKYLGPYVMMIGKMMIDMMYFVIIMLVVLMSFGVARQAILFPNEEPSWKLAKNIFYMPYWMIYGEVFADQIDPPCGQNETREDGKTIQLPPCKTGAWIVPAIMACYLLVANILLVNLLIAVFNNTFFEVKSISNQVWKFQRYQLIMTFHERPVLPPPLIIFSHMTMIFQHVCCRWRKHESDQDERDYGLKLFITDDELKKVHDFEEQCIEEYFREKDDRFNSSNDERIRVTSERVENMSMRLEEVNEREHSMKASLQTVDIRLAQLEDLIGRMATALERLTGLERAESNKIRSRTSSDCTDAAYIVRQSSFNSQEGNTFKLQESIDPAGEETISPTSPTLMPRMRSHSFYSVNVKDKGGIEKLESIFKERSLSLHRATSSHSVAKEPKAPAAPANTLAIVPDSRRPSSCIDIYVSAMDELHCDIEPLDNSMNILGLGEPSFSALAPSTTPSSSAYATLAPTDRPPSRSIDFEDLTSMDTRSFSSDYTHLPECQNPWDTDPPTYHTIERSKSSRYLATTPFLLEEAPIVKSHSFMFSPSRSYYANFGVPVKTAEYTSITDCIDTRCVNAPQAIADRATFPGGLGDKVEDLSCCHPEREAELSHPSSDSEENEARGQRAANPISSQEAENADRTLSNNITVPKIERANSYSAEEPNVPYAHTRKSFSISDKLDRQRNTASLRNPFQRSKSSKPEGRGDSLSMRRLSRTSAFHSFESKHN
row,IC50 [µM],SMILES
1,1 to 20,"Cn1nc2ccc(OCC3(C#N)CC3)cc2c1C(=O)N[C@@H](CO)C(N)=O [Cpd 148, (2S)-2-({5-[(1-cyanocyclopropyl)methoxy]-2-methyl-2H-indazol-3-yl}formamido)-3-hydroxypropanamide]"
2,< 1,"Cc1ncc(COc2ccc3nn(C)c(C(=O)N[C@H](C(N)=O)[C@@H](C)O)c3c2)s1 [Cpd 149, (2S,3R)-3-hydroxy-2-({2-methyl-5-[(2-methyl-1,3-thiazol-5-yl)methoxy]-2H-indazol-3-yl}formamido)butanamide]"
3,1 to 20,"Cc1ncc(COc2ccc3nn(C)c(C(=O)NCC(F)F)c3c2)s1 [Cpd 150, N-(2,2-difluoroethyl)-2-methyl-5-[(2-methyl-1,3-thiazol-5-yl)methoxy]-2H-indazole-3-carboxamide]"
4,1 to 20,"Cn1nc2ccc(OCc3ccccn3)cc2c1C(=O)N[C@@H]1CCN(CCO)C1=O [Cpd 152, N-[(3R)-1-(2-hydroxyethyl)-2-oxopyrrolidin-3-yl]-2-methyl-5-[(pyridin-2-yl)methoxy]-2H-indazole-3-carboxamide]"
5,1 to 20,"Cn1cc(COc2ccc3nn(C)c(C(=O)NC(C)(CO)C(N)=O)c3c2)cn1 (stereo not drawn) [Cpd 156, 3-hydroxy-2-methyl-2-({2-methyl-5-[(1-methyl-1H-pyrazol-4-yl)methoxy]-2H-indazol-3-yl}formamido)propanamide]"
6,1 to 20,"Cn1nc2ccc(OCc3ccccc3F)cc2c1C(=O)O [Cpd 198, 5-[(2-fluorophenyl)methoxy]-2-methyl-2H-indazole-3-carboxylic acid]"
7,> 20,"Cc1ncsc1COc1ccc2nn(C)c(C(=O)O)c2c1 [Cpd 199, 2-methyl-5-[(4-methyl-1,3-thiazol-5-yl)methoxy]-2H-indazole-3-carboxylic acid]"
8,> 20,"Cn1nc2ccc(OCc3ccccn3)cc2c1C(=O)NCCO [Cpd 205, N-(2-hydroxyethyl)-2-methyl-5-[(pyridin-2-yl)methoxy]-2H-indazole-3-carboxamide]"
9,1 to 20,"Cn1nc2ccc(OCc3ccccn3)cc2c1C(=O)NCc1ncc[nH]1 [Cpd 206, N-[(1H-imidazol-2-yl)methyl]-2-methyl-5-[(pyridin-2-yl)methoxy]-2H-indazole-3-carboxamide]"
10,1 to 20,"Cn1nc2ccc(OCc3ccccn3)cc2c1C(=O)NC1(CO)CC(F)(F)C1 [Cpd 217, N-[3,3-difluoro-1-(hydroxymethyl)cyclobutyl]-2-methyl-5-[(pyridin-2-yl)methoxy]-2H-indazole-3-carboxamide]"
11,< 1,"Cn1nc2ccc(OCc3ccccn3)cc2c1C(=O)NC(CO)(CCF)C(N)=O (stereo not drawn) [Cpd 234, 4-fluoro-2-(hydroxymethyl)-2-({2-methyl-5-[(pyridin-2-yl)methoxy]-2H-indazol-3-yl}formamido)butanamide]"
12,> 20,"Cn1nc2ccc(OCc3ccccn3)cc2c1C(=O)NC(CO)Cn1ccnc1C(F)(F)F (stereo not drawn) [Cpd 242, N-{1-hydroxy-3-[2-(trifluoromethyl)-1H-imidazol-1-yl]propan-2-yl}-2-methyl-5-[(pyridin-2-yl)methoxy]-2H-indazole-3-carboxamide]"
13,> 20,"O=C1NCCn2nc3ccc(OCc4ccccc4F)cc3c21 [Cpd 256, 9-[(2-fluorophenyl)methoxy]-1H,2H,3H,4H-pyrazino[1,2-b]indazol-1-one]"
14,1 to 20,"Cn1nc2ccc(OCc3ccccn3)cc2c1C(=O)NC(CO)CO [Cpd 259, N-(1,3-dihydroxypropan-2-yl)-2-methyl-5-[(pyridin-2-yl)methoxy]-2H-indazole-3-carboxamide]"
15,< 1,"O=C1c2c3cc(OCc4ccccc4F)ccc3nn2CCN1C(CO)CO [Cpd 260, 2-(1,3-dihydroxypropan-2-yl)-9-[(2-fluorophenyl)methoxy]-1H,2H,3H,4H-pyrazino[1,2-b]indazol-1-one]"

# Further lines, the compound ahead of its results:
row,SMILES,IC50 [µM]
1,"Cn1nc2ccc(OCC3CCCC3)cc2c1C(=O)NC(C)(CO)CO [Cpd 144, 5-(cyclopentylmethoxy)-N-(1,3-dihydroxy-2-methylpropan-2-yl)-2-methyl-2H-indazole-3-carboxamide]",> 20
2,"Cn1nc2ccc(OCC3CCCC3)cc2c1C(=O)NC(C)(C)C(N)=O [Cpd 145, 2-{[5-(cyclopentylmethoxy)-2-methyl-2H-indazol-3-yl]formamido}-2-methylpropanamide]",1 to 20
3,"Cn1nc2ccc(OCC3(C#N)CC3)cc2c1C(=O)NC(C)(CO)CO [Cpd 146, 5-[(1-cyanocyclopropyl)methoxy]-N-(1,3-dihydroxy-2-methylpropan-2-yl)-2-methyl-2H-indazole-3-carboxamide]",> 20
4,"Cc1ncc(COc2ccc3nn(C)c(C(=O)NC(CO)(CO)CO)c3c2)s1 [Cpd 147, N-[1,3-dihydroxy-2-(hydroxymethyl)propan-2-yl]-2-methyl-5-[(2-methyl-1,3-thiazol-5-yl)methoxy]-2H-indazole-3-carboxamide]",1 to 20
5,"Cn1nc2ccc(OCc3ccccn3)cc2c1C(=O)N[C@H]1CCN(CCO)C1=O [Cpd 153, N-[(3S)-1-(2-hydroxyethyl)-2-oxopyrrolidin-3-yl]-2-methyl-5-[(pyridin-2-yl)methoxy]-2H-indazole-3-carboxamide]",> 20
6,"CCC(CO)(NC(=O)c1c2cc(OCc3ccccn3)ccc2nn1C)C(N)=O (stereo not drawn) [Cpd 189, 2-(hydroxymethyl)-2-({2-methyl-5-[(pyridin-2-yl)methoxy]-2H-indazol-3-yl}formamido)butanamide]",< 1
7,"CC1CC(COc2ccc3nn(C)c(C(=O)NC(C)(CO)C(N)=O)c3c2)C1 (stereo not drawn) [Cpd 196, 3-hydroxy-2-methyl-2-({2-methyl-5-[(3-methylcyclobutyl)methoxy]-2H-indazol-3-yl}formamido)propenamide]",1 to 20
8,"Cn1nc2ccc(OCc3ccccc3)cc2c1C(=O)O [Cpd 197, 5-(benzyloxy)-2-methyl-2H-indazole-3-carboxylic acid]",1 to 20
9,"Cn1nc2ccc(OCc3ccccn3)cc2c1C(=O)NCC(F)(F)F [Cpd 204, 2-methyl-5-[(pyridin-2-yl)methoxy]-N-(2,2,2-trifluoroethyl)-2H-indazole-3-carboxamide]",> 20
10,"CN(C)CC(C)(C)CNC(=O)c1c2cc(OCc3ccccn3)ccc2nn1C [Cpd 207, N-[3-(dimethylamino)-2,2-dimethylpropyl]-2-methyl-5-[(pyridin-2-yl)methoxy]-2H-indazole-3-carboxamide]",> 20
11,"Cn1nc2ccc(OCc3ccccn3)cc2c1C(=O)NCC(F)(F)c1ccccc1 [Cpd 208, N-(2,2-difluoro-2-phenylethyl)-2-methyl-5-[(pyridin-2-yl)methoxy]-2H-indazole-3-carboxamide]",> 20
12,"Cn1nc2ccc(OCc3ccccn3)cc2c1C(=O)NCc1c(F)cccc1C(F)(F)F [Cpd 209, N-{[2-fluoro-6-(trifluoromethyl)phenyl]methyl}-2-methyl-5-[(pyridin-2-yl)methoxy]-2H-indazole-3-carboxamide]",> 20
13,"Cn1nc2ccc(OCc3ccccn3)cc2c1C(=O)NCc1cccc(OC(F)F)c1 [Cpd 210, N-{[3-(difluoromethoxy)phenyl]methyl}-2-methyl-5-[(pyridin-2-yl)methoxy]-2H-indazole-3-carboxamide]",> 20
14,"C=C(Nc1cc(C(F)(F)F)cnc1O)c1c2cc(OCc3ccccn3)ccc2nn1C [Cpd 218, 3-[(1-{2-methyl-5-[(pyridin-2-yl)methoxy]-2H-indazol-3-yl}ethenyl)amino]-5-(trifluoromethyl)pyridin-2-ol]",> 20
15,"Cn1nc2ccc(OCc3ccccn3)cc2c1C(=O)NC1(CO)COC(C)(C)OC1 [Cpd 219, N-[5-(hydroxymethyl)-2,2-dimethyl-1,3-dioxan-5-yl]-2-methyl-5-[(pyridin-2-yl)methoxy]-2H-indazole-3-carboxamide]",> 20
16,"O=C1NCCn2nc3ccc(OCc4ccccc4)cc3c21 [Cpd 257, 9-(benzyloxy)-1H,2H,3H,4H-pyrazino[1,2-b]indazol-1-one]",> 20
17,"O=C1c2c3cc(OCc4ccccc4F)ccc3nn2CCN1CCO [Cpd 261, 9-[(2-fluorophenyl)methoxy]-2-(2-hydroxyethyl)-1H,2H,3H,4H-pyrazino[1,2-b]indazol-1-one]",1 to 20
18,"Cn1nc2ccc(OCc3ccccc3F)cc2c1C(=O)NC(CO)CO [Cpd 262, N-(1,3-dihydroxypropan-2-yl)-5-[(2-fluorophenyl)methoxy]-2-methyl-2H-indazole-3-carboxamide]",1 to 20
